Test results published in patent US9187471B2, “Pyrido [4,3-b] indole and pyrido [3,4-b] indole derivatives and methods of use” (Medivation Technologies, Inc., priority 2010, dated 2015).

Experiments:
[1] = molecular target: T1, human recombinant dopamine D2L receptor (Homo sapiens, UniProt P14416); experiment: Dopamine D2L radioligand binding ([3H]Spiperone); conditions: read-out: Dopamine D2L (1 μM), percent inhibition of specific binding; compound at 1 μM; 0.16 nM [3H]Spiperone
T1 construct: expressed in transfected cells; host or cells: CHO
Description: Non-specific binding was estimated in the presence of 10 μM Haloperidol. Receptor proteins were filtered and washed, the filters were then counted to determine [^3H]Spiperone specifically bound.

[2] = molecular target: T2, human recombinant serotonin (5-Hydroxytryptamine) 5-HT5A receptor (Homo sapiens, UniProt P47898); experiment: Serotonin 5-HT5A radioligand binding ([3H]LSD); conditions: compound at 0.1 μM; read-out: Inhibition of ligand binding, Serotonin 5-HT5A (percent inhibition of specific binding)
T2 construct: expressed in transfected cells; host or cells: CHO-K1
Description: Compounds of the invention were incubated with 1.7 nM [^3H]Lysergic acid diethylamide (LSD) for 60 min at 37° C. […] Receptor proteins were filtered and washed, the filters were counted to determine [^3H]LSD specifically bound.

[3] = molecular target: T3, human recombinant serotonin (5-Hydroxytryptamine) 5-HT6 receptor (Homo sapiens, UniProt P50406); experiment: Serotonin 5-HT6 radioligand binding ([3H]LSD); conditions: compound at 0.1 μM; read-out: Inhibition of ligand binding, Serotonin 5-HT6 (percent inhibition of specific binding)
T3 construct: expressed in transfected cells; host or cells: HeLa
Excerpt: Receptor proteins were filtered and washed, the filters were then counted to determine [3H]LSD specifically bound.

[4] = molecular target: T4, human recombinant serotonin (5-Hydroxytryptamine) 5-HT2A receptor (Homo sapiens, UniProt P28223); experiment: Serotonin 5-HT2A radioligand binding ([3H]Ketanserin); conditions: compound at 0.1 μM; read-out: Inhibition of ligand binding, Serotonin 5-HT2A (percent inhibition of specific binding)
T4 construct: expressed in transfected cells; host or cells: CHO-K1
Description: Compounds of the invention were incubated with 0.5 nM [^3H]Ketanserin for 60 min at 25° C. Non-specific binding was estimated in the presence of 1 μM Mianserin. Receptor proteins were filtered and washed, the filters were then counted to determine [^3H]Ketanserin specifically bound.

[5] = molecular target: T5, human recombinant adrenergic α2C receptor (Homo sapiens, UniProt P18825); experiment: Adrenergic α2C radioligand binding ([3H]MK-912); conditions: read-out: Adrenergic (0.1 μM) a2C, percent inhibition of specific binding; compound at 0.1 μM; 1 nM [3H]MK-912
T5 construct: expressed in transfected cells; host or cells: insect Sf9 cells
T5 sequence (P18825 1-462): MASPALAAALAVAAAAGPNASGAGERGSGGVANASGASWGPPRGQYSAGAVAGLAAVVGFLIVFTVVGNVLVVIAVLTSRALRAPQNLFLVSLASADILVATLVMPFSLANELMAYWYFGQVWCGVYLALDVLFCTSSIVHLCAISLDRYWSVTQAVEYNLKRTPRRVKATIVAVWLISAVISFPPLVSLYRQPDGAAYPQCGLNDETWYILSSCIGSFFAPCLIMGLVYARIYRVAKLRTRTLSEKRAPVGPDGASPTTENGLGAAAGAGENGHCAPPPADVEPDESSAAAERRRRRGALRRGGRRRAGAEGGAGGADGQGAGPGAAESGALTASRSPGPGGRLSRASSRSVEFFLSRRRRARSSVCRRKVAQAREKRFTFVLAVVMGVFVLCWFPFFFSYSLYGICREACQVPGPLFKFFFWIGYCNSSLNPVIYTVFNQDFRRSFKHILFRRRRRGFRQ
Outline: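 Membranes from Sf9 cells expressing the human receptor, in 50 mM Tris-HCl pH 7.4 with 12.5 mM MgCl2 and 2 mM EDTA, incubated with compound and 1 nM [3H]MK-912 for 60 min at 25 °C. Non-specific binding defined with 10 μM WB-4101. Filter-bound radioactivity counted; percent inhibition of specific binding reported.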

[6] = molecular target: T6, human recombinant serotonin (5-Hydroxytryptamine) 5-HT2C receptor (Homo sapiens, UniProt P28335); experiment: Serotonin 5-HT2C radioligand binding ([3H]Mesulergine); conditions: compound at 0.1 μM; read-out: Inhibition of ligand binding, Serotonin 5-HT2C (percent inhibition of specific binding)
T6 construct: expressed in transfected cells; host or cells: CHO-K1
T6 sequence (P28335 33-458): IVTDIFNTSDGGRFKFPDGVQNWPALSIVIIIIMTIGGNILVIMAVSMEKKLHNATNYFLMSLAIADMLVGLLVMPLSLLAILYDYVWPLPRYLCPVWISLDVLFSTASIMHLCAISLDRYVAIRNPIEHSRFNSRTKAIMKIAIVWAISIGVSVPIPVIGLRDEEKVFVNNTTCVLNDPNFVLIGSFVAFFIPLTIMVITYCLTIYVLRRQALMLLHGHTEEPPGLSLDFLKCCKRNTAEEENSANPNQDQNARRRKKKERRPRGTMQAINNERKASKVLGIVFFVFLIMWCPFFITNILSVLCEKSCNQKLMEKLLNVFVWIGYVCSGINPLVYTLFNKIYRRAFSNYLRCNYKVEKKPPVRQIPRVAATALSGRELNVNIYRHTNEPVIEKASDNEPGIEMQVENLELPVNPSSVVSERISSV
Description: Compounds of the invention were incubated with 1 nM [^3H]Mesulergine for 60 min at 25° C. Non-specific binding was estimated in the presence of 1 μM Mianserin. Receptor proteins were filtered and washed, the filters were then counted to determine [^3H]Mesulergine specifically bound.

[7] = molecular target: T7, human recombinant histamine H1 receptor (Homo sapiens, UniProt P35367); experiment: Histamine H1 radioligand binding ([3H]Pyrilamine); conditions: read-out: Histamine H1 Binding (1 μM), percent inhibition of specific binding; compound at 1 μM; 1.2 nM [3H]Pyrilamine
T7 construct: expressed in transfected cells; host or cells: CHO-K1
Outline: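 Human recombinant H1 receptor expressed in CHO-K1 cells, in 50 mM Tris-HCl pH 7.4 with 2 mM MgCl2, 100 mM NaCl, 250 mM sucrose. Non-specific binding defined with 1 μM pyrilamine; bound [3H]pyrilamine counted after filtration and washing. Values are percent inhibition of specific binding.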

[8] = molecular target: T8, human recombinant serotonin (5-Hydroxytryptamine) 5-HT7 receptor (Homo sapiens, UniProt P34969); experiment: Serotonin 5-HT7 radioligand binding ([3H]LSD); conditions: compound at 0.1 μM; read-out: Inhibition of ligand binding, Serotonin 5-HT7 (percent inhibition of specific binding)
T8 construct: expressed in transfected cells; host or cells: CHO
Description: Lysergic acid diethylamide (LSD) for 120 min. at 25° C. […] Receptor proteins were filtered and washed, the filters were then counted to determine [^3H]LSD specifically bound.

T3 sequence (P50406 whole entry): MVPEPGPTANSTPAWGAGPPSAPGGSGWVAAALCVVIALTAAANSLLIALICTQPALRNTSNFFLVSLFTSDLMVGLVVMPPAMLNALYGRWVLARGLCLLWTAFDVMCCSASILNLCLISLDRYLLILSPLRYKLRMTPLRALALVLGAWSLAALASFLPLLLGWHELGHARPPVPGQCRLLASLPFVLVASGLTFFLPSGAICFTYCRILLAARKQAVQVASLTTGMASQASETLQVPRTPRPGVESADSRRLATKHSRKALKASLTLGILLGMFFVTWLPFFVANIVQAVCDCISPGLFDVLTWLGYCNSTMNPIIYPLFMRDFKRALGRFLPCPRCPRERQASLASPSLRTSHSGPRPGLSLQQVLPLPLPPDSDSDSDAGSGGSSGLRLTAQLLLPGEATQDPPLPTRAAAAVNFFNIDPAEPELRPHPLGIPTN
T1 sequence (P14416 whole entry): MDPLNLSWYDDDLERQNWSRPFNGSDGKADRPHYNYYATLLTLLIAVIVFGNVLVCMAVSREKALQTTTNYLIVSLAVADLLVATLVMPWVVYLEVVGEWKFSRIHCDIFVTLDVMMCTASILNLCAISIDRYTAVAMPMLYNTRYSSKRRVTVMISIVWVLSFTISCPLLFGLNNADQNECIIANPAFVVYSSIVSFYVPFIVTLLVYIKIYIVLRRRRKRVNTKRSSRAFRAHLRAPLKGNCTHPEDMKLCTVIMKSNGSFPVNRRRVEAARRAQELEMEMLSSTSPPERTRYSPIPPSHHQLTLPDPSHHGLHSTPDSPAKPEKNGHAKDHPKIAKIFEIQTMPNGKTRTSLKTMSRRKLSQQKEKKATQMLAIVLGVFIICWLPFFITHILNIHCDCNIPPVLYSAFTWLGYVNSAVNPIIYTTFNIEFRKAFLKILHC
T2 sequence (P47898 whole entry): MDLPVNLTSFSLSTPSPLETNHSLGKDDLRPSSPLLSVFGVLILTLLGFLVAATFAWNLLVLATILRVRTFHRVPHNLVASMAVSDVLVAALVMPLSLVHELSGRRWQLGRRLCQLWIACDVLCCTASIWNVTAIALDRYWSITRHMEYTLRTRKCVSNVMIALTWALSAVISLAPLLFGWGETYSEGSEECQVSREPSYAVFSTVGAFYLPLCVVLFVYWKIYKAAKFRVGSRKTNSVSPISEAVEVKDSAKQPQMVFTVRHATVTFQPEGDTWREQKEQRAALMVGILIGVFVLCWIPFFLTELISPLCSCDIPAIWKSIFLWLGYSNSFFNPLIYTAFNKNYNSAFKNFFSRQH
T8 sequence (P34969 whole entry): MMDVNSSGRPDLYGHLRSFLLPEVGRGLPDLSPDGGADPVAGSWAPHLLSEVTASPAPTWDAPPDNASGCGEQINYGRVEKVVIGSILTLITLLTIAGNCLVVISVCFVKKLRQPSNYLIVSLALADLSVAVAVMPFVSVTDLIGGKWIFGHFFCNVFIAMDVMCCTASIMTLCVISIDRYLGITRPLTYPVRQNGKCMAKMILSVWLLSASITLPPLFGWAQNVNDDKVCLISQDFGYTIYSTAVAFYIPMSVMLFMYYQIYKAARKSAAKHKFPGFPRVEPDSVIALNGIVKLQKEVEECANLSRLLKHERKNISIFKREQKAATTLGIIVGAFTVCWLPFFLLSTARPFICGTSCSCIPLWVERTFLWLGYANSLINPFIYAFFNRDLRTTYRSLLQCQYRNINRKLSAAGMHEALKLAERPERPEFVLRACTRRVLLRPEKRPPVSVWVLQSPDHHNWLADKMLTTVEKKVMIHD
T7 sequence (P35367 whole entry): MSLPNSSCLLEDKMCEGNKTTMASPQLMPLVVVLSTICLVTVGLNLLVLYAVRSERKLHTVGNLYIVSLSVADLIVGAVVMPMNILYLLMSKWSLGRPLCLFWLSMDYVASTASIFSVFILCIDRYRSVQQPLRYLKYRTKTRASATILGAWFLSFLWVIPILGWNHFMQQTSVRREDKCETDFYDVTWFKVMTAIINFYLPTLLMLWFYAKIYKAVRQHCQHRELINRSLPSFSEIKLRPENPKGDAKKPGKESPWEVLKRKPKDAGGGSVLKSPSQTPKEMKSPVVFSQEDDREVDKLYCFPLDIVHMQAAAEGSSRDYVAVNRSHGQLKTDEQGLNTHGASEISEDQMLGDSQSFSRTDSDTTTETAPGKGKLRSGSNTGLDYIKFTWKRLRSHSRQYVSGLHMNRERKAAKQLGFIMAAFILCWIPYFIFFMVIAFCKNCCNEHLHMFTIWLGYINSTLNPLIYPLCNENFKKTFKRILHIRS
T4 sequence (P28223 whole entry): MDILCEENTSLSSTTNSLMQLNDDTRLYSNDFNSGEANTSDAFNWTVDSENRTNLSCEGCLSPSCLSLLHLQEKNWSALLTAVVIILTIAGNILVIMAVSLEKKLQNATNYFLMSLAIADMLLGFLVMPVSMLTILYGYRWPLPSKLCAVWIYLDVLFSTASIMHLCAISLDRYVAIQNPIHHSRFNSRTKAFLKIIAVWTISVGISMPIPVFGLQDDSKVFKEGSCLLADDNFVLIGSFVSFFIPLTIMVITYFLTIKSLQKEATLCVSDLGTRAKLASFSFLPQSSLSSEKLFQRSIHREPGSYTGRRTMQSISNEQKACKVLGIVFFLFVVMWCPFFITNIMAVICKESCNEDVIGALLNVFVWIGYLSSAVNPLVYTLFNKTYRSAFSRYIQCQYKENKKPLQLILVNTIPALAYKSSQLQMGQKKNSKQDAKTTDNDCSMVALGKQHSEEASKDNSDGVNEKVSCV

Row | Structure (SMILES) | inhibition at 1 µM [1] [%] | inhibition at 0.1 µM [2] [%] | inhibition at 0.1 µM [3] [%] | inhibition at 0.1 µM [4] [%] | inhibition at 0.1 µM [5] [%] | inhibition at 0.1 µM [6] [%] | inhibition at 1 µM [7] [%] | inhibition at 0.1 µM [8] [%]
1 | Cc1ccc2c(c1)c1c(n2-c2ccccc2-c2cn[nH]c2)CCN(C)C1 [Compound No. 104, 5-(2-(1H-pyrazol-4-yl)phenyl)-2,8-dimethyl-2,3,4,5-tetrahydro-1H-pyrido[4,3-b]indole] | -1 | 20 | 10 | 57 | 1 | 77 | 24 | 27
2 | Cc1ccc2c(c1)c1c(n2-c2ccccc2-c2sccc2C)CCN(C)C1 [Compound No. 102, 2,8-dimethyl-5-(2-(3-methylthiophen-2-yl)phenyl)-2,3,4,5-tetrahydro-1H-pyrido[4,3-b]indole] | 48 | 10 | 42 | 92 | 43 | 90 | 57 | 34
3 | Cc1ccc2c(c1)c1c(n2-c2ccccc2-c2cccc3[nH]ncc23)CCN(C)C1 [Compound No. 105, 5-(2-(1H-indazol-4-yl)phenyl)-2,8-dimethyl-2,3,4,5-tetrahydro-1H-pyrido[4,3-b]indole] | 3 | 56 | 40 | 94 | 45 | 82 | 34 | 54
4 | Cc1ccc2c(c1)c1c(n2-c2ccccc2-c2cnn(C)c2)CCN(C)C1 [Compound No. 86, 2,8-dimethyl-5-(2-(1-methyl-1H-pyrazol-4-yl)phenyl)-2,3,4,5-tetrahydro-1H-pyrido[4,3-b]indole] | 6 | 37 | 11 | 94 | 0 | 71 | 47 | 53
5 | Cc1ccc2c(c1)c1c(n2-c2ccccc2-c2cncc3ccccc23)CCN(C)C1 [Compound No. 87, 5-(2-(isoquinolin-4-yl)phenyl)-2,8-dimethyl-2,3,4,5-tetrahydro-1H-pyrido[4,3-b]indole] | 10 | 24 | 13 | 70 | -6 | 66 | 47 | 14
6 | Cc1ccc2c(c1)c1c(n2-c2ccccc2-c2cc3ccccc3s2)CCN(C)C1 [Compound No. 103, 5-(2-(benzo[b]thiophen-2-yl)phenyl)-2,8-dimethyl-2,3,4,5-tetrahydro-1H-pyrido[4,3-b]indole] | 10 | 42 | 20 | 24 | 69 | 43 | 10 | 39
7 | Cc1ccc2c(c1)c1c(n2-c2cnc3ccccc3c2)CCN(C)C1 [Compound No. 88, 2,8-dimethyl-5-quinolin-3-yl-2,3,4,5-tetrahydro-1H-pyrido[4,3-b]indole] | 7 | 22 | 4 | 93 | 4 | 90 | 18 | 13
8 | Cc1ccc2c(c1)c1c(n2-c2ccccc2-c2cccn2C)CCN(C)C1 [Compound No. 100, 2,8-dimethyl-5-(2-(1-methyl-1H-pyrrol-2-yl)phenyl)-2,3,4,5-tetrahydro-1H-pyrido[4,3-b]indole] | 11 | 11 | 26 | 74 | 66 | 72 | 36 | 48
